Values after ≈ are worked out from the molar mass of the structure shown. Where two headings read alike, the source gives them in different places. Marks after values point to notes of the source that are not given here. Positions of bridges follow the written chain, without caps; N, C: chain ends. Non-standard residues stand in square brackets, D forms with d. Residues, ends and D or L forms follow the SMILES beside them. pGlu = O=C1CC[C@@H](C(=O)O)N1
Legend:
[1] = system: T. pityocampa AlstR-C; test: TGF-α shedding assay on HEK293 cells overexpressing the receptor; type: cell-based, Thaumetopoea pityocampa; conditions: Gαq/i1, read-out: EC50 (AP-TGFα release)
Description: HEK293 cells were maintained in DMEM (PAN Biotech) supplemented with 10% FBS (Gibco) and 1% Penicillin-Streptomycin (Gibco) at 37 °C in a 5% CO2 incubator. Cells were seeded in 6-well plates before transfection, and Lipofectamine™ 3000 Transfection Reagent (Thermo Fisher Scientific) was used for transfection in compliance with the manufacturer’s instructions.
HEK293 cells were seeded in DMEM 10% FBS without P/S to 6-well plates 1 day before the transfection. Following overnight incubation at 37 °C, the cells were cotransfected with plasmids of the desired receptor (100 ng)[44],[48] or pcDNA3.1, AP-TGFα (250 ng), and Gαq/i1 (10 ng) using Lipofectamine™ 3000 Transfection Reagent and incubated 24 h at 37 °C 5% CO2 incubator. Plasmids used for the TGF-α shedding assay were kindly gifted from Prof. Asuka Inoue[82],[83]. TGF-α Shedding Assay was used to measure the activity of studied compounds[83]. Cell harvesting was accomplished with TrypLE™ Express Enzyme (Gibco) since it was previously noted that trypsinization results in a higher background signal. After reseeding the cells in a 96-well plate, 10x concentrations of the compounds prepared in HBSS were applied for stimulation. For compounds not readily soluble in water, a concentration of 0.01 % (w/v) bovine serum albumin (BSA) in HBSS was used for dilution. Each treatment was performed with four replicas. Alkaline phosphatase activity was measured before and after 1-h and 2-h incubation at room temperature, and the absorbance of the plates at 405 nm was measured. AP-TGF-α release signals were fitted to a four-parameter sigmoidal dose-response curve, and EC50 values were calculated using GraphPad Prism 9.5.

[2] = system: AlstR-C; test: GloSensor cAMP assay after forskolin stimulation; type: cell-based, Thaumetopoea pityocampa; conditions: after 10 µM forskolin
Description: The ability of the hit compounds to activate the Gαi pathway was evaluated using a commercial cAMP assay (GloSensor, Promega). Prior to ligand treatment, cells were stimulated with 10 µM forskolin to elevate intracellular cAMP levels, and the ability of each ligand and control to downregulate cAMP was evaluated after 1 h. […] As an additional control, the ability of the hit compounds to activate a different receptor (5-HTR4) was also assessed using an AP-TGFα assay (Fig. 4k).
HEK293 cells were seeded 30,000 cells per well in DMEM 10% FBS without P/S to Greiner 655094 96-well plates 1 day before the transfection. Following overnight incubation at 37 °C, the cells were cotransfected with plasmids of the desired receptor along with GloSensor^TM cAMP plasmid using Lipofectamine™ 3000 Transfection Reagent and incubated 24 h at 37 °C 5% CO2 incubator. […] The baseline development was measured on a Thermo Scientific Fluoroskan Ascent FL Microplate Fluorometer and Luminometer plate reader following the cell stimulation with 10 μL 10 μM forskolin, approximately 1 h. […] Luminescence was measured at 1 read per well every 2 min, scaling factor was 10. Data were analyzed by calculating the area under the curve (AUC) over the ~2-h measurement period. Statistical significance was measured with ANOVA, and multiple comparisons were done with Dunnett’s Test. […]

[3] = system: T. pityocampa larvae; test: Toxicity tests, topical application on second instar larvae; type: in vivo; conditions: for Mean mortality: highest effect
Description: (§1) Pine processionary moth 2nd instar larvae of Thaumetopoea pityocampa for toxicity tests, adult, and 1st instar larvae of predator Calosoma sycophanta, 2nd instar larvae of potato beetle Leptinotarsa decemlineata were used for side effect assays.
T. pityocampa larvae were collected from red pine trees, Pinus brutia, in Nallıhan district of Ankara, Türkiye, in 2021. Larvae were cultured in 60 (±10) % humidity, 27 (±2) °C, and 16:8 light: dark photoperiod and were fed with red pine needles.
Stock solutions of the molecules were dissolved in DMSO, AST-C peptide was dissolved in PBS supplemented with 0.1% BSA pH 7.4. Dilutions were prepared in PBS supplemented with 0.1% BSA pH 7.4 in 50, 100, 250, 500, 750, and 1000 ppm (mg/L) concentrations and later placed in an ultrasonic bath (Sonorex, Bandelin) for ~10 min at 37 °C until all precipitates had vanished. Toxicity tests were conducted 1 day after larvae collection. 5 µL of doses were applied on the dorsal surface of the head-prothorax junction topically. […] Two negative control groups were prepared as PBS-applied and no application. Following the procedures, larvae were fed with 15 g P. brutia needles. Experiments were carried out on 10 larvae for each dosage, with three repeats.
(§2) Insect deaths were evaluated on the 3rd, 7th, and 14th days in toxicity and side effect experiments. The ones that were not feeding or not responding by a movement to stimulation with a soft-tipped brush were accepted as dead. Percentage mortality values generated on the 14th day were corrected using Abbott’s formula[84]. Statistical analyses were executed with IBM SPSS Statistics (v26.0) and R Studio (2022.02.0), and two-way ANOVA and Tukey test were performed to detect the data’s statistical significance. Lethal concentration values of LC50–90 (dose that produces 50-90% mortality in the population) with 95% confidence intervals (CI) and slopes were obtained using PoloPlus software (LeOra Software, USA) for mortality values assessed on the 14th day for T. pityocampa and the 3rd day for L. decemlineata. The LC50–90 values were considered to be similar if their 95% CIs overlapped (P > 0.05)[85]. Analysis between-subject effects on T. pityocampa larva length; one-way ANOVA tests assessing the impacts of molecule treatment on T. pityocampa larvae on larva length; and analysis of between-subjects effects on T. pityocampa head capsule width, alongside one-way ANOVA tests regarding the effects of molecule treatment on T. pityocampa larvae to head capsule width are detailed in the Source Data File (Source Data Supplementary Data Tables 1–4). Source data is available as Source Data File.

[4] = system: T. pityocampa larvae; test: Larval body allometry (body length, head capsule width) on day 14 of treatment; type: in vivo, Thaumetopoea pityocampa; conditions: for head capsule width / total body length: 14th day of treatment; for Larva Length, Mean Difference (I-J) versus Control / head capsule width, Mean Difference (I-J) versus Control: day 14, Tukey HSD, n = 20
Description: In addition, the ability of the identified hit compounds to alter larval body allometry was tested through measuring total body lengths and head capsule widths on the 14th day of treatment (Fig. 7).
as §2

[5] = set-up: method as in PMID 19540423, PMID 20936640; conditions: cited from earlier work
[6] = system: Calosoma sycophanta first-instar larvae and adults; test: Side effect tests on predatory insect, topical application; type: in vivo; conditions: 1000 ppm topical, days 3, 7, 14
Description: as §1
C. sycophanta adults and T. pityocampa nests were collected from Korkuteli forests in Antalya 2022. T. pityocampa nests were stored at +4 °C to prevent pupae formation. 20 adult C. sycophanta were placed in clear plastic boxes (30 × 45 × 30 cm) with moist soil at the bottom. Adults were fed with T. pityocampa larvae regularly. After mating, C. sycophanta eggs were collected from the soil with a soft tip brush, and eggs were reserved in moist cotton until eggs cracked. Subsequently, C. sycophanta larvae were placed individually in clear, hard plastic cups (180 cm^3) containing moist soil and covered with glass. One T. pityocampa larva per day was added to each cup for feeding. Predator insects were cultured in 65 (±5) % humidity, 25 (±5) °C, and 16:8 light: dark photoperiod.
(§3) Effective molecules of toxicity tests were applied on adults, 1st instar larvae of predator C. sycophanta, and 2nd instar larvae of potato beetle L. decemlineata to evaluate side effects.
C. sycophanta larvae and adults were placed individually in clear, hard plastic cups (180 cc) containing moist soil. 5 µL of 1000 ppm dose was applied topically on the head-prothorax junction’s dorsal surface. 50 larvae and adults were used in the experiments. One T. pityocampa larva per day was added to each cup for feeding. Two negative controls were PBS-applied and no application groups.
as §2, with “Analysis between-subject effects on T. pityocampa larva length; one-way ANOVA tests assessing the impacts of molecule treatment on T. pityocampa larvae on larva length; and analysis of between-subjects effects on T. pityocampa head capsule width, alongside one-way ANOVA tests regarding the effects of molecule treatment on T. pityocampa larvae to head capsule width are detailed in the Source Data File (Source Data Supplementary Data Tables 1–4). Source data is available as Source Data File.” left out

[7] = system: Leptinotarsa decemlineata second-instar larvae; test: Side effect tests on potato beetle larvae, topical application; type: in vivo; conditions: 1000 ppm topical, second-instar larvae, days 3, 7, 14
Description: as §1
(§4) L. decemlineata larvae were collected from a potato field in Kahramankazan district of Ankara province in 2022. The larvae were cultured in the laboratory under 60% (±10) humidity, 27(±2) °C temperature, and 16:8 light: dark photoperiod with potato plant leaves.
as §3
(§5) 5 µL of 1000 ppm dose were applied topically on the dorsal surface of the head-prothorax junction 2nd instar larvae of potato beetle. 30 larvae were used in assays, and larvae were placed on potato leaves inside the water-filled cups for feeding. Negative control groups were as previously described. Dimilin 25 WP (%25 diflubenzuron) was used as a positive control on L. decemlineata. Experiments were carried out with three repeats.
as §2

[8] = as above; type: in vivo; conditions: Leptinotarsa decemlineata, in vivo
Description: as §1, §4, §3, §5, §2

[9] = day 14 mortality, Probit analysis
[10] = Thaumetopoea pityocampa, topical, 336 h, read-out: LC50 (95% CI)
[11] = Thaumetopoea pityocampa, topical, 336 h

Structure (SMILES) | EC50 [1] [µM] | ability to downregulate cAMP (RLU) [2] | Mean mortality ([3]; 14 days post-administration) [%] | LC50 ([3]; day 14 after the application, Probit analysis) [ppm] | LC50 (95% CI) [3, 9] | LC90 (95% CI) [3, 9] | head capsule width [4] | total body length [4] | Larva Length, Mean Difference (I-J) versus Control [4] | head capsule width, Mean Difference (I-J) versus Control [4] | shelf life and degradation in the environment [5] | mortality rate ([3]; 14 days post-administration, highest dose) | LC50 [3, 10] [µg/mL] | mortality ([3]; end of day 7, 1000 ppm) [%] | Insect deaths (mortality rate) [6] | Insect deaths (mortality rate) [7] | LC50 [3, 11] [µg/mL] | LC50 at 3 days ([8]; L. decemlineata larvae, positive control, 3rd day mortality) [µg/mL] | LC50 at 3 days ([8]; potato beetle larvae, after 3 days of application) [µg/mL] | mortality ([3]; after 3 days, >500 ppm) [%]
CC[C@H](C)[C@@H]1NC(=O)[C@@H]2CCCN2C(=O)[C@H](CC(N)=O)NC(=O)[C@H](Cc2ccccc2)NC(=O)[C@H](Cc2ccc(O)cc2)NC(=O)[C@@H](NC(=O)[C@H](CCC(N)=O)NC(=O)[C@H](CCCNC(=N)N)NC(=O)[C@H](Cc2ccccc2)NC(=O)[C@H](CCCNC(=N)N)NC(=O)[C@@H](NC(=O)[C@@H]2CCC(=O)N2)C(C)C)CSSC[C@@H](C(=O)N[C@@H](Cc2ccccc2)C(=O)O)NC(=O)[C@H](CO)NC1=O [AST-C, reference compound] ([pGlu]VRFRQCYFNPISCF-OH; disulfide 7-14; C-terminus assumed) | 0.000623 | most significant impact | 100 | 152 | 152.414 (101.993–209.528) mg/L | 782.851 (512.785–1616.980) mg/L | Statistically significant decreases | Statistically significant decreases | -9,070* mm | -1,105* mm | comparatively short shelf life and undergoes rapid degradation in the environment |  |  |  |  |  |  |  |  | 
O=C1c2n[nH]c(-c3ccccc3O)c2C(c2cccc(Oc3ccccc3)c2)N1CC1CCCO1 (stereo not drawn) [D074-0013] | 1.42 |  |  |  |  |  | small compared to other molecules | small compared to other molecules | -4,445* mm |  |  | below 50% | > 1000 | 27 | below 10% | below 10% |  |  |  | 
O=C1c2n[nH]c(-c3ccccc3O)c2C(c2cccc(OCc3ccccc3)c2)N1CC1CCCO1 (stereo not drawn) [D074-0034] | 4.7 |  |  |  |  |  |  |  | -7,845* mm | -1,000* mm |  |  | 444 (≈ 921 µM) |  | below 10% | below 10% | 443 (≈ 920 µM) |  |  | 
O=C(NC(=O)c1c(F)cccc1F)Nc1ccc(Cl)cc1 [Diflubenzuron, diflubenzuron, reference compound] |  |  |  |  |  |  |  |  |  |  |  |  |  |  |  |  |  | 38.5 (≈ 124 µM) | 38 (≈ 122 µM) | 
O=C(C[C@@H]1NC(=O)c2ccccc2NC1=O)NCCn1c(=O)c(O)nc2ccccc21 [J100-0311] | 5.66 |  |  |  |  | 6740.368 (2743.061–6.275 × 10^4) mg/L |  |  | -8,015* mm | -1,075* mm |  |  | 412 (≈ 977 µM) |  | below 10% | below 10% | 411 (≈ 975 µM) |  |  | 
COc1ccc([C@H](CC(=O)NCc2ccncc2)c2cn(Cc3ccc(C)cc3)c3ccccc23)cc1OCc1ccccc1 [V029-3547] | 8.17 | greatest ability to modulate cAMP | 83.7 |  |  | 900.815 (696.503–1634.450) mg/L |  |  | -8,705* mm | -1,120* mm |  |  | 406 (≈ 682 µM) |  | below 10% | below 10% | 406 (≈ 682 µM) |  |  | > 63.3
